Data set [1] has as its system wild-type poliovirus. The format is cell-based. Particulars: HeLa cells infected with wild-type poliovirus at MOI 0.1, treated one day, CPE score.

Molecules are shown by their SMILES.

The term melting point denotes the temperature of the solid-liquid transition.

Turning to `C[C@@H](OC(=O)Nc1ccc(-c2c(C#N)c3ccc(-c4ncccn4)cc3n2C2CCC2)cc1)C1CC1` [Compound 2419, [4-(3-cyano-1-cyclobutyl-6-pyrimidin-2-yl-1H-indol-2-yl)-phenyl]-carbamic acid 1-cyclopropyl-ethyl ester], the melting point is 212 to 214 °C. Still for that read-out and setting: next, `C[C@@H](OC(=O)Nc1ccc(-c2c(C#N)c3ccc(Oc4ncccn4)cc3n2C2CC2)cc1)C1CC1` [Compound 2217, (R)-{4-[3-cyano-1-cyclopropyl-6-(pyrimidin-2-yloxy)-1H-indol-2-yl]-phenyl}-carbamic acid 1-cyclopropylethyl ester]: 154 to 156 °C. For the compound `CCn1c(-c2ccc(OC)cc2)c(C#N)c2ccc(OC)cc21` [Compound 19], the “WT-PV CPE (1 μM)*” value in data set [1] (1 μM compound) came to 1. Also, the “WT-PV CPE (10 μM)*” value in data set [1] (10 μM compound) is reported as 2. Besides, the “WT-PV CPE (100 μM)*” value in data set [1] (100 μM compound) was 3. For the compound `C[C@@H](OC(=O)Nc1ccc(-c2c(C#N)c3ccc(-c4ccccn4)cc3n2C2CCC2)cc1)C1CC1` [Compound 2417, [4-(3-cyano-1-cyclobutyl-6-pyridin-2-yl-1H-indol-2-yl)-phenyl]-carbamic acid 1-cyclopropyl-ethyl ester], the melting point is 118 to 120 °C. In turn, `CC(C)OC(=O)Nc1ccc(-c2c(C#N)c3ccc(Oc4ncccn4)cc3n2C2CCC2)cc1Cl` [Compound 2339, {2-chloro-4-[3-cyano-1-cyclobutyl-6-(pyrimidin-2-yloxy)-1H-indol-2-yl]-phenyl}-carbamic acid isopropyl ester] returned a melting point of 165 to 165.5 °C.

Consider `C[C@@H](OC(=O)Nc1ccc(-c2c(C#N)c3ccc(Oc4ncccn4)cc3n2C2CCC2)cc1)C1CC1` [Compound 2210, (R)-{4-[3-cyano-1-cyclobutyl-6-(pyrimidin-2-yloxy)-1H-indol-2-yl]-phenyl}carbamic acid 1-cyclopropyl-ethyl ester], for which the melting point was in the range of 194 to 196 °C. Take `CC(C)Nc1ccc(-c2c(C#N)c3ccc(Oc4ncccn4)cc3n2C2CC2)cc1` [Compound 2434, 1-cyclopropyl-2-(4-isopropylamino-phenyl)-6-(pyrimidin-2-yloxy)-1H-indole-3-carbonitrile]: the melting point was in the range of 215 to 217 °C. Still for that read-out and setting: the same measure for `CCCS(=O)(=O)Nc1ccc(-c2c(C#N)c3ccc(OC(F)F)cc3n2CC)cc1` [Compound 928, Propane-1-sulfonic acid [4-(3-cyano-6-difluoromethoxy-1-ethyl-1H-indoel-2-yl)-phenyl]-amide]: 206 to 208 °C; for `CC(C)NS(=O)(=O)Nc1ccc(-c2c(C#N)c3ccc(Oc4ncccn4)cc3n2C2CCC2)cc1` [Compound 2263]: 223 to 224 °C.

Values taken from patent publication US7973069B2 (PTC Therapeutics, Inc., priority 2004, dated 2011).
